According to patent US20210277003A1, “OGA INHIBITOR COMPOUNDS” (Janssen Pharmaceutica NV, priority 2018, published 2021):

What was measured:
[1] = molecular target: T1, recombinant human Meningioma Expressed Antigen 5 (MGEA5), also referred to as O-GlcNAcase (OGA) (Homo sapiens, UniProt O60502); experiment: OGA biochemical assay: inhibition of hydrolysis of fluorescein mono-ß-D-N-Acetyl-Glucosamine (FM-GlcNAc), fluorescence readout; conditions: FM-GlcNAc substrate; for Emax: read-out: Enzymatic Emax (%); for IC50: read-out: Enzymatic hOGA, pIC50 (converted)
T1 construct: Full length OGA enzyme was purchased at OnGene (cat #TP322411); purchased OnGene (so in the source)
T1 sequence (O60502 1-916): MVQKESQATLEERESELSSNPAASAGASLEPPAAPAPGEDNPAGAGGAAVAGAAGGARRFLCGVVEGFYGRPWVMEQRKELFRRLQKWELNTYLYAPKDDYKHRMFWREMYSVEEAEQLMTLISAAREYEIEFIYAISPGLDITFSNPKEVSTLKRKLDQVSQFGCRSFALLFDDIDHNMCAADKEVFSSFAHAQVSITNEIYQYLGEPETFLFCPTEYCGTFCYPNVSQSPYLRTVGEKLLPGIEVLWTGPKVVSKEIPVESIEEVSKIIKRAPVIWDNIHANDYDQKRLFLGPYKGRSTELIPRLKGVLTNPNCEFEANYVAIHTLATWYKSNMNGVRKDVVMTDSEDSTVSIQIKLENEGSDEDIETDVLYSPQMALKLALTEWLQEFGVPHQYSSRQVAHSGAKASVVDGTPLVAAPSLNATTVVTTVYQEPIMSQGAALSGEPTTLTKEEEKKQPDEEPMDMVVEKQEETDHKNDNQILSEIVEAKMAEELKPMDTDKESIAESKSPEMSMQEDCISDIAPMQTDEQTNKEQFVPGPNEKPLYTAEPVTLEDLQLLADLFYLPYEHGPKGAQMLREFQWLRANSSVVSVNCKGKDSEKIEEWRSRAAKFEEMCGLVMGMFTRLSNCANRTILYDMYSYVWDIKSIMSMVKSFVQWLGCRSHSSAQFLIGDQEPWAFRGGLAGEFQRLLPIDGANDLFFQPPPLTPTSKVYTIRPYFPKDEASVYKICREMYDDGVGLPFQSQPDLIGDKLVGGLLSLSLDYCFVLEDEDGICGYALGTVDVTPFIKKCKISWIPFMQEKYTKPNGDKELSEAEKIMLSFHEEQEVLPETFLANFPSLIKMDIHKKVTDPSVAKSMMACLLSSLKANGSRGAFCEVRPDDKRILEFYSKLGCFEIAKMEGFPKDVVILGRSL
In short: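 Full-length recombinant human OGA (2 nM) was pre-incubated with compound for 60 min, then reacted with 100 uM FM-GlcNAc for 6 h at room temperature in 200 mM citrate/phosphate pH 7.2 with 0.005% Tween-20. Reactions were stopped with pH 11.0 carbonate and fluorescein read at 485/538 nm. IC50 and Hill coefficient came from curve fitting.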

[2] = test system: OGA in HEK293 cells inducible for P301L mutant human Tau (isoform 2N4R); experiment: OGA cellular assay: immunocytochemical detection of O-GlcNAcylated proteins (CTD110.6 antibody); assay type: cell-based; conditions: Homo sapiens, HEK293, 6 h, 6 hours incubation; for Emax: maximum = Thiamet G 200 uM; for EC50: read-out: Cellular hOGA, pEC50 (converted)
In short: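 Cells seeded 2 days ahead in low-glucose assay medium and exposed to compounds for 6 h at 0.2% DMSO, then PFA-fixed and immunostained. Signal is 488 nm intensity from imaging (9 fields/well), with Hoechst nuclei counts as a toxicity check. IC50 from non-linear regression, with 200 uM Thiamet G per plate as maximum inhibition.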

| Structure (SMILES) | Enzymatic hOGA; pIC50 [1] | Emax [1] | Emax [2] | EC50 [2] | IC50 [1] |
| --- | --- | --- | --- | --- | --- |
| Cc1ccnc(C(C)C)c1Nc1nccc2c1ccn2CC1CCCO1 (stereo not shown) [Compound 138] | 8.07 | 103% | 66.8% | 74.1 nM |  |
| CCCCn1ccc2c(Nc3c(C)cc4c(cnn4C)c3C)nccc21 [Compound 87] |  | 102% | 87% | 12.9 nM | 4.79 nM |
| CCC(F)Cn1ccc2c(Nc3c(C)ccnc3C)nccc21 (stereo not shown) [Compound 78] |  | 103% | 96% | 7.94 nM | 3.24 nM |
| CCCCn1ccc2c(Nc3c(C)ccc4cccnc34)nccc21 [Compound 15] | 7.18 | 101% | 71% | 562 nM |  |
| CC[C@H](O)Cn1ccc2c(Nc3c(C)cc(C#N)cc3Cl)nccc21 [Compound 123b] | 7.53 | 99.2% | 71.1% | 100 nM |  |
| CCCCn1ccc2c(Nc3c(Cl)cncc3Cl)nccc21 [Compound 42] |  | 100% | 49% | > 1000 nM | 34.7 nM |
| CC(C)(C#N)Cn1ccc2c(Nc3c(Cl)cc(F)cc3Cl)nccc21 [Compound 83] |  | 96% | 8% | > 1000 nM | 912 nM |
| Cc1cc(C(F)(F)F)cc(C)c1Nc1nccc2c1ccn2CC(F)(F)C(C)C [Compound 176] |  | 103% | 101% | 5.5 nM | 1.55 nM |
| Cc1cc(OC(F)F)nc(C)c1Nc1nccc2c1ccn2CC1CC(F)(F)C1 [Compound 146] | 7.56 | 101% | 76.3% | 45.7 nM |  |
| Cc1ccnc(C)c1Nc1nccc2c1ccn2CC(F)(F)C1CC1 [Compound 23] | 8.84 | 102% | 97% | 2.95 nM |  |
| Cc1cc(F)cc(C(C)C)c1Nc1nccc2c1ccn2CC1CCO1 (stereo not shown) [Compound 163] | 8.63 | 104% | 90.3% | 4.17 nM |  |
| Cc1cc(Cn2ccc3c(Nc4c(C)ccnc4C)nccc32)no1 [Compound 133] | 8.16 | 101% | 76.1% | 87.1 nM |  |
| Cc1cncc(C)c1Nc1nccc2c1ccn2CCC1CC1 [Compound 49] |  | 103% | 63% | 79.4 nM | 11.7 nM |
| CCCCn1cc(F)c2c(Nc3c(C)cncc3C)nccc21 [Compound 34] |  | 99% | 36% | > 1000 nM | 178 nM |
| Clc1cccc(Cl)c1Nc1nccc2c1ccn2CC1CC1 [Compound 69] |  | 102% | 82% | 55 nM | 3.39 nM |
| CCCCn1ccc2c(Nc3c(C)ccc(C(=O)N4CCCC4)c3C)nccc21 [Compound 55] |  | 103% | 104% | 22.4 nM | 1.7 nM |

| Structure (SMILES) | Enzymatic hOGA; pIC50 [1] | Emax [1] | Emax [2] | EC50 [2] | IC50 [1] |
| --- | --- | --- | --- | --- | --- |
| CCCCn1ccc2c(Nc3c(C)ccc(C(=O)N4CCOCC4)c3C)nccc21 [Compound 13] | 8.49 | 105% | 87% | 28.2 nM |  |
| Cc1c(F)cnc(C(C)C)c1Nc1nccc2c1ccn2CC1CCO1 (stereo not shown) [Compound 127] | 8.75 | 103% | 76.7% | 11.5 nM |  |
| Cc1cc(OC(F)(F)F)cc(C)c1Nc1nccc2c1ccn2CC(F)(F)C(C)C [Compound 187] |  | 101% | 96.4% | 8.71 nM | 1.78 nM |
| CC[C@@H](O)Cn1ccc2c(Nc3c(C)cc(C#N)cc3Cl)nccc21 [Compound 123a] | 7.56 | 102% | 63.8% | 437 nM |  |
| CC(C)CCn1ccc2c(Nc3c(Cl)cccc3Cl)nccc21 [Compound 60] |  | 102% | 86% | 55 nM | 3.63 nM |
| CCCCn1ccc2c(Nc3c(Cl)ccc4c3CCO4)nccc21 [Compound 8] | 8.11 | 102% | 87% | 110 nM |  |
| Cc1cc(C(F)(F)F)cc(C)c1Nc1nccc2c1ccn2CC1CC(F)(F)C1 [Compound 118] | 7.89 | 102% | 71.7% | 74.1 nM |  |
| N#Cc1ccc(-n2ccc3c(Nc4c(Cl)cccc4Cl)nccc32)nc1 [Compound 166] |  | 101% | 44.1% | 1000 nM | 47.9 nM |
| FC1(F)CC1CCn1ccc2c(Nc3c(Cl)cccc3Cl)nccc21 (stereo not shown) [Compound 95] | 7.61 | 104% | 63% | 525 nM |  |
| CCCCn1ccc2c(Nc3c(C)cncc3Cl)nccc21 [Compound 5] | 7.95 | 101% | 67% | 67.6 nM |  |
| Cc1cc2cnn(C)c2c(C)c1Nc1nccc2c1ccn2CC(F)(F)C(C)C [Compound 189] |  | 100% | 101% | 3.16 nM | 1.05 nM |
| Cc1cccc(S(C)(=O)=O)c1Nc1nccc2c1ccn2CC1CC(F)(F)C1 [Compound 174] |  | 99.3% | 87% | 93.3 nM | 12.9 nM |
| CC[C@@H](O)Cn1ccc2c(Nc3c(C)cc(C(F)(F)F)cc3C)nccc21 [Compound 124a] | 7.88 | 103% | 74.7% | 21.9 nM |  |
| CCCCn1ccc2c(Nc3c(C)cc4c(ncn4C)c3C)nccc21 [Compound 77] |  | 99% | 83% | 7.41 nM | 4.79 nM |
| CCCCn1ccc2c(Nc3c(C)cnnc3C(C)C)nccc21 [Compound 19] | 7.8 | 102% | 94% | 83.2 nM |  |
